The values that follow are results of earlier work, collected in patent US20220160728A1, “GENE THERAPY METHODS” (Homology Medicines, Inc., priority 2020, published 2022).

The conditions of this series: corticosteroid equivalency conversion values (prednisolone equivalents).
With `C[C@]12C=CC(=O)C=C1CC[C@H]1[C@@H]3C[C@@H](O)[C@](O)(C(=O)CO)[C@@]3(C)C[C@H](O)[C@@]12F` [Triamcinolone], the Equivalent dose was 4 mg.

Regarding `C[C@]12CCC(=O)C=C1CC[C@@H]1[C@@H]2[C@@H](O)C[C@@]2(C)[C@H]1CC[C@]2(O)C(=O)CO` [Hydrocortisone (cortisol), Hydrocortisone], the Equivalent dose was 20 mg.

As for `C[C@]12C=CC(=O)C=C1CC[C@@H]1[C@@H]2[C@@H](O)C[C@@]2(C)[C@H]1CC[C@]2(O)C(=O)CO` [Prednisolone], the Equivalent dose is listed as 5 mg.

As for `CC(=O)OCC(=O)[C@@]1(O)CC[C@H]2[C@@H]3CCC4=CC(=O)CC[C@]4(C)[C@H]3C(=O)C[C@@]21C` [Cortisone acetate], the Equivalent dose is reported as 25 mg.
